Source: patent US12448358B2, “Inhibitors of protein arginine deiminase 1 and methods of preparation and use thereof” (University of Massachusetts, priority 2019, dated 2025)

Target: T1, PAD1 (Homo sapiens, UniProt Q9ULC6)
T1 construct: made in house
T1 sequence (Q9ULC6 1-663): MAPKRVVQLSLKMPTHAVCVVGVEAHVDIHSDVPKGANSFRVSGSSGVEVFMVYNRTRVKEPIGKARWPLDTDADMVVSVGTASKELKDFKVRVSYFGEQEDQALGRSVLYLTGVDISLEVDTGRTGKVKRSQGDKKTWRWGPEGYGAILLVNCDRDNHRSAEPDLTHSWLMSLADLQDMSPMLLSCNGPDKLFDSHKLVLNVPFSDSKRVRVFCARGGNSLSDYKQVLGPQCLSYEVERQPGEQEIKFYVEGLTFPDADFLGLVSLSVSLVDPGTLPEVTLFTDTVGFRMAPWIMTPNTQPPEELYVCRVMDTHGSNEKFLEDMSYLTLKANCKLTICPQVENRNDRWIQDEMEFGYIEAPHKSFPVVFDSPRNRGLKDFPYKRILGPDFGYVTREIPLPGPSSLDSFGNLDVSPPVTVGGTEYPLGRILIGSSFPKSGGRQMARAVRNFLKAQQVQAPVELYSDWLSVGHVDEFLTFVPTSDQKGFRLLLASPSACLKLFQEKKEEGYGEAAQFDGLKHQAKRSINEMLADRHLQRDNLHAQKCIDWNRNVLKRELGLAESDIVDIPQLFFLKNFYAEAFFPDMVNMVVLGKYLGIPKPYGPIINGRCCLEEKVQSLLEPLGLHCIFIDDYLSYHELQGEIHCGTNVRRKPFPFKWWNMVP
Experiment: Streptavidin enrichment and ReDiMe proteomics of proteins labelled by probe in HEK293TPAD1 cells (PAD1)
Format: cell-based
Conditions: 5 μM probe versus control
Procedure: Enrichment of Proteins Labelled by 21 in HEK293TPAD1 Cells on Streptavidin-agarose. HEK293TPAD1 cells were cultured in 175 cm^2 T-175 flasks in DMEM (supplemented with 10% heat-inactivated fetal bovine serum, 100 units/mL penicillin, 100 μg/mL streptomycin and 0.15 mg/mL hygromycin B). Upon reaching ˜90% confluence, cells were treated with 1 mM CaCl2, 5 μM ionomycin and 5 μM of 21 (or equal volume of DMSO for control) in serum-free DMEM for 3 h. Then the cells were scraped, harvested by centrifugation at 3,000 rpm for 5 min and resuspended in 1×PBS. Cell lysis was performed by probe sonication and soluble proteins in the lysates were quantified by DC Assay (Bio-Rad). Endogenous biotinylated proteins were precleared by incubating the lysates with streptavidin-agarose beads (25 μL for 1 mg of total protein in the lysate) at room temperature for 1 h with constant mixing on an end-over-end shaker. The mixture was centrifuged (1200 g, 3 minute) to separate the beads and the supernatant (pre-cleared lysate). Pre-cleared lysates (2 mg/mL, 500 μL final) were clicked with Biotin-N3 (100 μM), TCEP (1.5 mM), TBTA (0.3 mM) and freshly prepared CuSO4 (4 mM), and the tubes were gently tumbled at room temperature for 2 h. The precipitated proteins were collected by centrifugation at 5,000 rpm for 10 min. […]

Enrichment ratio (heavy/light) of PAD1: ~20
SMILES: C#Cc1c(I)cc(C(=O)N[C@@H](CCCNC(=N)CF)c2nc3ccccc3[nH]2)c(O)c1I [Compound 21]
